The source made the active and inactive calls.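 How the source made its calls: active means AC50 no more than tenfold above the top dose tested, or full inhibition at every dose with a flat fit (cut at about 19 µM in these data); inconclusive means flat curve fit with inhibition between 30% and 70%, or poor fit; inactive means AC50 more than tenfold above the top dose tested.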
Tested on: HMLE_sh_eGFP viability, CellTiter-Glo luminescence, 72 h
Assay: cytotoxicity in HMLE control line with eGFP shRNA, dose response, counter-screen for HMLE_sh_ECad selective toxicity project, cell-based, HMLE_sh_eGFP, luminescence (AID 463074);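 further: counterscreen control line to flag general toxicity for the HMLE_sh_ECad screen; potency for loss of viability as luminescence drops below DMSO wells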

Cc1nc(N2CCCCC2)c2c(C)c(C(=O)Nc3ccccc3C(F)(F)F)sc2n1
AC50: 1.85 µM

CCOC(=O)N1CCN(CCC(=O)c2ccc(Cl)cc2)CC1
AC50: 14 µM

Cc1c(-c2cccc(Cl)c2)nc2ccccc2c1C(=O)OC/C(O)=C(\C#N)c1nc2ccccc2[nH]1
AC50: 3.12 µM

CCCN1CCc2c(sc(NC(=O)c3ccc(S(=O)(=O)N(C)c4ccccc4)cc3)c2C(=O)NC)C1
AC50: 5.34 µM

Cc1ccc(C(=O)CSC2=C(C#N)C(c3ccco3)C3=C(CC(C)(C)CC3=O)N2)cc1 (centres undefined)
AC50: 3.33 µM

COc1ccc([N+](=O)[O-])cc1Nc1c2ccccc2nc2ccccc12
AC50: 1.43 µM

CC(C)(C)OC(=O)NCCc1nnc(S(=O)(=O)Cc2ccc(Cl)cc2Cl)o1
AC50: 5.73 µM

C[C@H](CO)N1C[C@H](C)[C@H](CN(C)Cc2ccc(-c3ccccc3)cc2)Oc2ccc(NS(=O)(=O)c3ccccc3)cc2CC1=O
AC50: 4.74 µM

Cc1ccc2c(c1)c1ncn(CCC3=CCCCC3)c(=O)c1n2C
AC50: 1.09 µM

CCc1ccccc1Nc1nn2c(=O)c3ccc(C(=O)NCc4ccccn4)cc3nc2s1
AC50: < 0.16 µM

CCCC(=O)Nc1nc2ccc(NC(=O)c3c(F)c(F)c(OC)c(F)c3F)cc2s1
AC50: 1.56 µM

O=C(Nc1ccc2c(c1)OCCO2)c1cccc2nc3ccccc3nc12
AC50: 3.18 µM

CNC(=O)C1C(=S)NC(N)=C(C#N)C1c1ccccc1 (centres undefined)
AC50: > 19.5 µM (inactive)

COc1ccc(-n2sc3c(c2=S)-c2cc(OC)ccc2NC3(C)C)cc1
AC50: 3.51 µM

CCN(CC)CCCNC(=O)c1cc(-c2ccccc2)c(N2CCCCC2)s1
AC50: 3.29 µM

COc1ccc(OC)c(-c2cc(-c3cccnc3)nc(N)c2C#N)c1
AC50: 1.95 µM

O=C(Nc1ccc(-c2csc(Nc3cccc(C(F)(F)F)c3)n2)cc1)c1ccccc1
AC50: 1.96 µM

Cc1ccc(C)c(S(=O)(=O)N2CCN(c3ncnc4sccc34)CC2)c1
AC50: 3.19 µM

COc1ccc(C(=O)c2ccc3oc(-c4ccc(OC)cc4)c(-c4ccc(O)cc4)c3c2)cc1
AC50: 3.87 µM

CC1(C)Cc2c(C#N)c(NC3CCCCC3)nc(-c3ccco3)c2CO1
AC50: 7.19 µM

O/N=C/c1ccnc(SCc2ccc(Cl)cc2)n1
AC50: 10.9 µM

CC[C@H](C)[C@H]1O[C@]2(CC[C@@H]1C)C[C@@H]1C[C@@H](CC=C(C)[C@@H](O[C@H]3C[C@H](OC)[C@@H](O[C@H]4C[C@H](OC)[C@@H](O)[C@H](C)O4)[C@H](C)O3)[C@@H](C)C=CC=C3CO[C@@H]4[C@H](O)C(C)=C[C@@H](C(=O)O1)[C@]34O)O2
AC50: 1.78 µM

CCCCNc1c(-c2cccc(Sc3ccc(OC)cc3)c2)nc2ccccn12
AC50: 6.56 µM

O=C(Nc1ccccc1Cc1ccccc1)c1ccccc1NS(=O)(=O)c1ccc(Cl)s1
AC50: 1.84 µM

O=[N+]([O-])c1cccc(-c2cc(-c3cc(Br)ccc3O)[nH]n2)c1
AC50: 7.53 µM

CN(C)CCNC(=O)/C(=C/c1ccc(-c2ccc(Cl)cc2Cl)o1)NC(=O)c1ccccc1
AC50: 4.78 µM

N#Cc1c(/N=C/N2CCCC2)oc(-c2ccccc2)c1-c1ccccc1
AC50: 3.02 µM

O=C(Nc1ccc(C(F)(F)F)cc1)c1cccn(Cc2ccc3c(c2)OC(F)(F)O3)c1=O
AC50: 4.91 µM

Cc1ccc(NNC(=O)C(O)(c2cccc(C(F)(F)F)c2)c2cccc(C(F)(F)F)c2)cc1
AC50: 3.29 µM

COc1cccc2sc3cc(C#CC4(O)CCCCC4)ccc3c(=O)c12
AC50: 3.1 µM

Cn1nnnc1Sc1ncnc2scc(-c3ccc(C(F)(F)F)cc3)c12
AC50: 3.03 µM

O=C(/C=C/c1ccc2c(c1)OCO2)c1c(O)n(CCC2=CCCCC2)c(=O)[nH]c1=O
AC50: 1.63 µM

NC(=O)c1ccc(NC(=O)COC(=O)c2c3c(nc4ccccc24)/C(=C\c2cccs2)CCC3)cc1
AC50: 10.3 µM

O=C1C(Cl)=C(Nc2ccccc2)C(=O)c2ccccc21
AC50: 2.19 µM

O=C1c2cccc3cccc(c23)C(=O)N1CCN1CCN(CC(O)COc2ccc3ccccc3c2)CC1 (centres undefined)
AC50: 6.81 µM

COC(=O)c1sc2nc(N3CCCCC3)c3c(c2c1N)CCCC3
AC50: 4.94 µM

Cc1nc([N+](=O)[O-])c(Br)n1CC(=O)c1ccc2ccccc2c1
AC50: 6.46 µM

Cc1cccc(-c2nc(C#N)c(NC3CCCCC3)o2)c1
AC50: 19.4 µM

Cc1ccc(-c2nnc(N3CCC(C)CC3)c3ccccc23)cc1C
AC50: 4.3 µM

O=C(NCc1ccc(Cl)cc1)c1cccc(NC(=O)c2ccccc2)c1
AC50: 6.79 µM

O=C(O)c1ccc(C=C(c2nc3ccccc3s2)c2nc3ccccc3s2)cc1
AC50: 5.12 µM

Cc1cn(-c2cc(C(=O)Nc3ccc(C)c(NC(=O)C(=O)c4c[nH]c5ccccc45)c3)cc(C(F)(F)F)c2)cn1
AC50: 3.5 µM

Cc1snc(S(=O)(=O)/C(C#N)=N/Nc2ccc(C(F)(F)F)cc2)c1C#N
AC50: 19.7 µM

O=[N+]([O-])c1cc(-c2cnc3ccccc3n2)ccc1Oc1ccc(Cl)cc1
AC50: 3.38 µM

O=C(Nc1cccc(Cl)c1)c1nc[nH]c1C(=O)NCCCNC(=O)c1[nH]cnc1C(=O)Nc1cccc(Cl)c1
AC50: 5.33 µM

CCCOc1ccc(/C=N/Nc2cc(N3CCOCC3)ncn2)c(O)c1
AC50: 3.38 µM

Cc1sc2nc(SCCN(C)C)n(-c3ccccc3)c(=O)c2c1-c1ccc(F)cc1
AC50: 10.2 µM

CC1CCCCC1NC(=O)/C(C#N)=C/c1ccccc1F (centres undefined)
AC50: 7.72 µM

O=c1c2c3c(sc2ncn1/N=C/c1ccc([N+](=O)[O-])o1)CCCC3
AC50: 6.48 µM

CC1CCN(c2nc(Cl)nc(Nc3ccc([N+](=O)[O-])cc3)n2)CC1
AC50: 3.41 µM

CC1=NN(c2nc(-c3ccc(F)cc3)cs2)C(=O)C1
AC50: 13.4 µM

Cc1ccc(-c2csc3ncnc(-n4cnc5ccccc54)c23)cc1
AC50: 4.28 µM

CC(C)(C)[C@@H]1CCC(=O)N(CC[C@H](Sc2ccc(Br)cc2)c2ccccc2)CC1
AC50: 3.38 µM

O=[N+]([O-])c1cc(C(F)(F)F)ccc1NCCNC(=S)Nc1ccc(Cl)cc1
AC50: 5.24 µM

CC(C)(C)c1cc(C(=O)N/N=C/c2ccccc2O)n(-c2ccccc2)n1
AC50: 4.41 µM

CC(=O)C12CC(C)=C(C)CC1CC1C3CCC4=CC(=O)CCC4(C)C3CCC12C (centres undefined)
AC50: 6.65 µM

Cc1ccc2nc(-c3cccc(-c4cccc(Cl)c4)c3)c(NCc3ccccc3)n2c1
AC50: 3.17 µM

COc1ccccc1OCCN1CSC(=S)N(C)C1
AC50: 5.24 µM

O=C(Cc1ccccc1)Nc1cccc(NC(=O)c2ccccc2)c1
AC50: 9.89 µM

Cn1cccc1/C=C1\SC(=S)N(Nc2ccccc2)C1=O
AC50: 2.31 µM

CCCOc1ccc(C(=O)C(CN2CCCC2)c2ccccc2)cc1 (centres undefined)
AC50: 3.3 µM

O=c1cc(N2CCCCC2)c(-c2ccccc2)nn1Cc1ccc(Cl)cc1
AC50: 3.77 µM

CCC(C)Sc1cccc(-c2nc3ccc(C)cn3c2NCc2ccccc2)c1 (centres undefined)
AC50: 2.88 µM

Cc1[nH]n(-c2ncc(-c3ccc(Cl)cc3)s2)c(=O)c1C(c1ccc(Cl)cc1)C(C#N)C#N (centres undefined)
AC50: 3.86 µM

O=C(NCc1ccco1)c1ccc2c(c1)N(Cc1ccccc1)CCS2
AC50: > 19.5 µM (inactive)

Oc1nc(Nc2cccc(Cl)c2)sc1/C=C1\C=Nc2ccccc21
AC50: 3.78 µM

CC(/C=C1\SC(=O)N(CC(=O)Nc2cccc(O)c2)C1=O)=C\c1ccccc1
AC50: 13.6 µM

O=Cc1ccc(Oc2cc(-c3ccccc3)nc(-c3ccccc3)n2)cc1
AC50: 7.03 µM

Cc1ccc(C)c(Cc2c(C)nc3c(C(=O)NCc4ccc5c(c4)OCO5)cnn3c2C)c1
AC50: 19 µM

O=C(Nc1ccon1)c1nc[nH]c1C(=O)NCc1ccccc1
AC50: 1.77 µM

CN(C)c1ccc(/C=C2\CCC/C(=C\c3ccccc3)C2=O)cc1
AC50: 5.47 µM

C[C@]12CC[C@H](O)C[C@H]1CC[C@@H]1[C@@H]2C[C@@H](O)[C@]2(C)[C@@H](C3=CC(=O)OC3)CC[C@]12O
AC50: 0.654 µM

N#C/C(=C/c1ccc(O)c(O)c1)C(=O)NCc1ccc(Cl)cc1
AC50: 13.7 µM

CCCCNc1c(-c2ccc(-c3cccc(Cl)c3)cc2)nc2ccccn12
AC50: 3.87 µM

C=CCn1c(SCC(=O)c2[nH]c(C)c(C(=O)OCC)c2C)nc2scc(-c3ccc(OC)c(OC)c3)c2c1=O
AC50: 3.99 µM

CCCOc1ccc(-c2nc(N3CCN(CC)CC3)c3ccccc3n2)cc1
AC50: 6.44 µM

O=C(N/N=C/c1cc(Cl)ccc1O)C(=O)Nc1ccccc1OC(F)(F)C(F)F
AC50: 3.9 µM

COc1ccc(Cc2nnc(N/N=C/c3ccccc3O)[nH]c2=O)cc1OC
AC50: 3.4 µM

CCn1cc(C(=O)N[C@H](C)c2ccccc2)c(=O)c2cc(F)c(N3CCN(C)CC3)cc21
AC50: 3.5 µM

CCSc1ncc(/C=N/Nc2ccc(Cl)cc2)n1C
AC50: 6.75 µM

COc1ccc(-c2nc(NC(=O)c3cc(C(C)(C)C)nn3C)sc2C)cc1
AC50: 14.2 µM

Cc1ccc(NC(=O)NCC2CCN(Cc3cccc(Cl)c3)CC2)cc1Cl
AC50: 6.9 µM

CCCCNC(=O)c1ccc(Cn2c(=S)[nH]c3c([nH]c4ccc(OC)cc43)c2=O)cc1
AC50: 1.38 µM

COc1ccc(-c2csc(NC(=S)NC(=O)/C=C/c3ccco3)n2)cc1OC
AC50: 3.72 µM

CC(C)=CCc1c(O)cc2c(=O)c3ccc(O)cc3oc2c1O
AC50: 6.87 µM

Cc1cc2c(cc1C)CSC(c1c(O)ccc3ccccc13)SC2
AC50: 3.12 µM

Oc1ccc(C[C@@H]2CNC(=S)N2CCCCC2CCCCC2)cc1
AC50: 6.13 µM

O=C(NCC1CCCCC1)c1cc2ccccc2cc1O
AC50: 7.79 µM

COc1ccc(C(=O)/C=C/c2ccc(OCc3ccccc3)cc2)cc1CSCC(=O)O
AC50: 5.81 µM

CCCN1C/C(=C/c2ccc3c(c2)OCO3)C(=O)/C(=C/c2ccc3c(c2)OCO3)C1
AC50: 1.12 µM

CCCCCCc1cc2cc(C(=O)Nc3ccccc3)c(=O)oc2cc1O
AC50: 2.01 µM

COc1ccccc1/C=C/C=N/n1c(-c2n[nH]c3c2CCC3)n[nH]c1=S
AC50: 19.7 µM

Cc1cccc(NC(=O)c2ccc(COc3ccc(Cl)cc3Cl)o2)n1
AC50: 3.38 µM

CCN(CC)c1ccc2cc(S(=O)(=O)c3ccc(Cl)cc3)c(=O)oc2c1
AC50: 4.98 µM

CCOC(=O)c1c(-c2ccccc2)csc1NC(=O)c1nn(CC)cc1Br
AC50: 0.478 µM

O=C(CSc1ncnc2nc[nH]c12)c1ccc(Cl)cc1
AC50: 6.23 µM

CCC(C)n1c(O)c(/C=N/Nc2ccccc2)c(=O)[nH]c1=S (centres undefined)
AC50: 3.58 µM

O=C(/C=C/c1ccc(F)cc1)c1cc(Br)ccc1O
AC50: 14.1 µM

CCN1CCN(CCCOc2ccc(-c3ccccc3)cc2)CC1
AC50: 5.67 µM

S=C(Nc1ccccc1)Nc1nc2ccccc2n1CCOc1ccc(Br)cc1
AC50: 14 µM

Oc1c(Cl)cc(Cl)cc1CNc1ccc(Br)cn1
AC50: 3.68 µM

CC(C)c1nc2sc3ccccc3c(=O)c2c(=O)n1Cc1ccccc1
AC50: 6.29 µM

O=C(/C=C\c1ccccc1)NCC(=O)N/N=C/c1ccc(O)cc1O
AC50: 12 µM

O=C(Nc1ccc(Nc2ccccc2)cc1)c1cc([N+](=O)[O-])ccc1Cl
AC50: 10.6 µM

From PubChem BioAssay AID463074 (Broad Institute, 2010)
